Measured values as given in PubChem BioAssay AID1963835 (Molecular Pharmacology Branch, DTP, NCI, 2024).

System: 699152-130-R-J1-PDC complex spheroid viability
Test: Anticancer human tumor 699152-130-R-J1-PDC patient-derived pancreatic carcinoma cell line growth inhibition [POLQ]
Conditions: for IC50: curve of first compound; for viability, T/C: stronger effect = lower value
Method in brief: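 Three-cell-type spheroids modelling solid tumor plus stroma served as the readout system; POL inhibitors were tested individually and in combination, concentration ranges set by clinical Cmax where known.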

[1] = second compound 0.0316 µM, first compound 0.0316 µM
[2] = second compound 0.0316 µM, first compound 0.1 µM
[3] = second compound 0.0316 µM, first compound 0.316 µM
[4] = second compound 0.0316 µM, first compound 1 µM
[5] = second compound 0.0316 µM, first compound 3.16 µM
[6] = second compound 0.0316 µM, first compound 10 µM
[7] = second compound 0.1 µM, first compound 0.0316 µM
[8] = second compound 0.1 µM, first compound 0.1 µM
[9] = second compound 0.1 µM, first compound 0.316 µM
[10] = second compound 0.1 µM, first compound 1 µM
[11] = second compound 0.1 µM, first compound 3.16 µM
[12] = second compound 0.1 µM, first compound 10 µM
[13] = second compound 0.316 µM, first compound 0.0316 µM
[14] = second compound 0.316 µM, first compound 0.1 µM
[15] = second compound 0.316 µM, first compound 0.316 µM
[16] = second compound 0.316 µM, first compound 1 µM
[17] = second compound 0.316 µM, first compound 3.16 µM
[18] = second compound 0.316 µM, first compound 10 µM
[19] = second compound 1 µM, first compound 0.0316 µM
[20] = second compound 1 µM, first compound 0.1 µM
[21] = second compound 1 µM, first compound 0.316 µM
[22] = second compound 1 µM, first compound 1 µM
[23] = second compound 1 µM, first compound 3.16 µM
[24] = second compound 1 µM, first compound 10 µM
[25] = second compound 3.16 µM, first compound 0.0316 µM
[26] = second compound 3.16 µM, first compound 0.1 µM
[27] = second compound 3.16 µM, first compound 0.316 µM
[28] = second compound 3.16 µM, first compound 1 µM
[29] = second compound 3.16 µM, first compound 3.16 µM
[30] = second compound 3.16 µM, first compound 10 µM
[31] = second compound 10 µM, first compound 0.0316 µM
[32] = second compound 10 µM, first compound 0.1 µM
[33] = second compound 10 µM, first compound 0.316 µM
[34] = second compound 10 µM, first compound 1 µM
[35] = second compound 10 µM, first compound 3.16 µM
[36] = second compound 10 µM, first compound 10 µM
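Note: spheroids exposed to agents for 7 days before viability reading.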
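Throughout, for viability, T/C: percent of DMSO vehicle control viability so 100% = vehicle and 0% = no viable signal.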

## C=CC(=O)N1CCN(c2nc(=O)n(-c3c(C)ccnc3C(C)C)c3nc(-c4c(O)cccc4F)c(F)cc23)C(C)C1 (stereo unspecified) + COC1C(OC(N)=O)C(O)C(Oc2ccc3c(O)c(NC(=O)c4ccc(O)c(CC=C(C)C)c4)c(=O)oc3c2C)OC1(C)C
Second compound 0.0316 µM
  IC50: > 10 µM
Second compound 0.1 µM
  IC50: > 10 µM
Second compound 0.316 µM
  IC50: > 10 µM
Second compound 1 µM
  IC50: > 10 µM
Second compound 3.16 µM
  IC50: > 10 µM
Second compound 10 µM
  IC50: > 10 µM
[1]
  viability, T/C: 110%
[2]
  viability, T/C: 98%
[3]
  viability, T/C: 97.7%
[4]
  viability, T/C: 102%
[5]
  viability, T/C: 116%
[6]
  viability, T/C: 100%
[7]
  viability, T/C: 104%
[8]
  viability, T/C: 96.3%
[9]
  viability, T/C: 107%
[10]
  viability, T/C: 118%
[11]
  viability, T/C: 126%
[12]
  viability, T/C: 114%
[13]
  viability, T/C: 123%
[14]
  viability, T/C: 108%
[15]
  viability, T/C: 109%
[16]
  viability, T/C: 103%
[17]
  viability, T/C: 122%
[18]
  viability, T/C: 105%
[19]
  viability, T/C: 102%
[20]
  viability, T/C: 108%
[21]
  viability, T/C: 101%
[22]
  viability, T/C: 108%
[23]
  viability, T/C: 129%
[24]
  viability, T/C: 104%
[25]
  viability, T/C: 106%
[26]
  viability, T/C: 92.8%
[27]
  viability, T/C: 99.8%
[28]
  viability, T/C: 105%
[29]
  viability, T/C: 125%
[30]
  viability, T/C: 114%
[31]
  viability, T/C: 116%
[32]
  viability, T/C: 94.7%
[33]
  viability, T/C: 103%
[34]
  viability, T/C: 110%
[35]
  viability, T/C: 117%
[36]
  viability, T/C: 106%

## C#Cc1c(F)ccc2cc(O)cc(-c3ncc4c(N5CC6CCC(C5)N6)nc(OCC56CCCN5CC(F)C6)nc4c3F)c12 (stereo unspecified) + Cc1cccc(N(C)C(=O)C2C(O)CCN2c2nc(C)cc(C(F)(F)F)c2C#N)c1
Second compound 0.0316 µM
  IC50: < 0.0316 µM
Second compound 0.1 µM
  IC50: < 0.0316 µM
Second compound 0.316 µM
  IC50: < 0.0316 µM
Second compound 1 µM
  IC50: < 0.0316 µM
Second compound 3.16 µM
  IC50: < 0.0316 µM
Second compound 10 µM
  IC50: < 0.0316 µM
[1]
  viability, T/C: 27.9%
[2]
  viability, T/C: 17.8%
[3]
  viability, T/C: 22.6%
[4]
  viability, T/C: 13.8%
[5]
  viability, T/C: 12.4%
[6]
  viability, T/C: 12.1%
[7]
  viability, T/C: 25.5%
[8]
  viability, T/C: 16.7%
[9]
  viability, T/C: 15.5%
[10]
  viability, T/C: 13.2%
[11]
  viability, T/C: 13.8%
[12]
  viability, T/C: 13.1%
[13]
  viability, T/C: 26.9%
[14]
  viability, T/C: 18.4%
[15]
  viability, T/C: 14.5%
[16]
  viability, T/C: 13.8%
[17]
  viability, T/C: 14.6%
[18]
  viability, T/C: 12.4%
[19]
  viability, T/C: 21.9%
[20]
  viability, T/C: 20.6%
[21]
  viability, T/C: 15.3%
[22]
  viability, T/C: 13.2%
[23]
  viability, T/C: 15.1%
[24]
  viability, T/C: 13.8%
[25]
  viability, T/C: 22.9%
[26]
  viability, T/C: 17.1%
[27]
  viability, T/C: 17.4%
[28]
  viability, T/C: 16.5%
[29]
  viability, T/C: 15.2%
[30]
  viability, T/C: 12.8%
[31]
  viability, T/C: 21.5%
[32]
  viability, T/C: 18.4%
[33]
  viability, T/C: 17.1%
[34]
  viability, T/C: 14.3%
[35]
  viability, T/C: 13.4%
[36]
  viability, T/C: 15.3%

## O=c1[nH]cc(F)c(=O)[nH]1 + Cc1cccc(N(C)C(=O)C2C(O)CCN2c2nc(C)cc(C(F)(F)F)c2C#N)c1
Second compound 0.0316 µM
  IC50: > 10 µM
Second compound 0.1 µM
  IC50: > 10 µM
Second compound 0.316 µM
  IC50: > 10 µM
Second compound 1 µM
  IC50: > 10 µM
Second compound 3.16 µM
  IC50: > 10 µM
Second compound 10 µM
  IC50: > 10 µM
[1]
  viability, T/C: 105%
[2]
  viability, T/C: 109%
[3]
  viability, T/C: 107%
[4]
  viability, T/C: 113%
[5]
  viability, T/C: 102%
[6]
  viability, T/C: 74.1%
[7]
  viability, T/C: 110%
[8]
  viability, T/C: 113%
[9]
  viability, T/C: 99.2%
[10]
  viability, T/C: 107%
[11]
  viability, T/C: 100%
[12]
  viability, T/C: 82.6%
[13]
  viability, T/C: 120%
[14]
  viability, T/C: 122%
[15]
  viability, T/C: 106%
[16]
  viability, T/C: 107%
[17]
  viability, T/C: 120%
[18]
  viability, T/C: 79.9%
[19]
  viability, T/C: 108%
[20]
  viability, T/C: 104%
[21]
  viability, T/C: 104%
[22]
  viability, T/C: 111%
[23]
  viability, T/C: 92.1%
[24]
  viability, T/C: 74.7%
[25]
  viability, T/C: 113%
[26]
  viability, T/C: 116%
[27]
  viability, T/C: 108%
[28]
  viability, T/C: 104%
[29]
  viability, T/C: 117%
[30]
  viability, T/C: 87.3%
[31]
  viability, T/C: 103%
[32]
  viability, T/C: 102%
[33]
  viability, T/C: 104%
[34]
  viability, T/C: 92.8%
[35]
  viability, T/C: 91.3%
[36]
  viability, T/C: 84.6%
